Values of other authors as cited in patent US8507011B2, “Method for suppressing or preventing fibrous adhesion formation using a multicomponent aqueous oxychlorine composition prepared on-site” (priority 2009, dated 2013).

Columns and labels:
wound = conditions: 0.01% concentration
adhesion = conditions: interperitoneal infusion, rats

Compound | pKa | Wound irrigant activity (in words) (wound) | Adhesion suppression versus control (in words) (adhesion)
OCl [hypochlorous acid] | about 7.5 | showed promise as an effective antimicrobial wound irrigant | 
CN(C)c1ccc2nc3ccc(=[N+](C)C)cc-3sc2c1 [methylene blue] |  |  | none were found between methylene blue and control
